These are literature values, as cited in US11395811B2, “Compositions comprising a fatty acid oil mixture comprising EPA and DHA in free acid form and a surfactant, and methods and uses thereof” (ProNova BioPharma Norge AS, priority 2009, dated 2022).

For the first series the following is noted: Brij surfactants, Table 2.
Consider “polyethylene glycol oleyl ether [Brij ® 96V]”, for which the “HLB Value” is on record as 12.4.
For “polyoxyethylene (2) stearyl ether [Brij ® 72]”, the “HLB Value” is listed as 4.9.
Take “Polyoxyethylene(4) lauryl ether [Brij ® 30]”: the “HLB Value” is 9.7.
As to “Polyoxyethylene (2) cetyl ether [Brij ® 52]”, the “HLB Value” is listed as 5.3.
Turning to “polyoxyethylene (100) stearyl ether [Brij ® 700]”, the “HLB Value” is listed as 18.
Consider “Polyoxyethylene (2) oleyl ether [Brij ® 92V]”, for which the “HLB Value” was 4.9.
As for “Polyoxyethylene (2) oleyl ether [Brij ® 93]”, the “HLB Value” was 4.

Staying with this series, now noted: Myrj surfactants, Table 5.
As for “polyoxyethylene monostearate [Myrj ® 45]”, the “HLB Value” is given as 11.1.
Turning to “polyoxyethylene monostearate [Myrj ® 52]”, the “HLB Value” is listed as 16.9.
As to “polyoxyethylene monostearate [Myrj ® 53]”, the “HLB Value” is on record as 17.9.
Take “polyoxyethylene monostearate [Myrj ® 49]”: the “HLB Value” is 15.0.

Staying with this series, now noted: Tween surfactants, Table 4.
Regarding “polyoxyethylene (20) sorbitan monolaurate [Tween ® 20]”, the “HLB Value” is on record as 16.0.
